Data reported in the Deep4Chem optical property database.
Several values for one entry are separate records, joined by “and”; a condition that tells them apart may be missing. Equal entries are not always repeated.

Assay: solvent given as SMILES

`COc1ccc2c3c(c4ccc(C(C)(C)C)cc4c2c1)=C(c1cc(OC)c(OC)c(OC)c1)C1=Nc2c(-c4cc(OC)c(OC)c(OC)c4)c4c5ccc(C(C)(C)C)cc5c5cc(OC)ccc5c4n2[B-](F)(F)[N+]=31` gave an emission maximum (in Cc1ccccc1) of 810 nm.

Compound `N#Cc1cc(N2c3ccccc3Oc3ccccc32)cc(N2c3ccccc3Oc3ccccc32)c1` has an emission maximum (in Cc1ccccc1) of 520 nm.

Compound `COc1ccc(C2=[N+]3C(=Nc4c(C)cc(-c5ccc(OC)cc5)n4[B-]3(F)F)C(C)=C2)cc1` has an emission maximum (in CS(C)=O) of 692 nm.

In the case of `COC(=O)c1cc(=O)n(C)c2cc(-c3ccccc3N(C)C)sc12`, the emission maximum (in CC#N) is reported as 484 nm and the emission maximum (in ClCCl) is reported as 537 nm.

`CC(C)(C)c1ccc(-c2ccc(-c3ccc(C(C)(C)C)cc3)c3nsnc23)cc1` gave an emission maximum (in ClCCl) of 512 nm.

Compound `CCN(CC)c1ccc(-c2nc(Oc3ccc(-c4nc5ccc(Cl)cc5o4)cc3)nc(Oc3ccc(-c4nc5ccc(Cl)cc5o4)cc3)n2)cc1` has an emission maximum (in CN(C)C=O) of 424 nm.

In the case of `Cc1ccccc1C1=C2C=c3c(oc4ccc(C(C)(C)C)cc34)=[N+]2[B-](F)(F)n2c1cc1c3cc(C(C)(C)C)ccc3oc12`, the emission maximum (in C1CCCCC1) is reported as 602 nm, the emission maximum (in CCOC(C)=O) is reported as 602 nm and the emission maximum (in CO) is reported as 600.5 nm.

In the case of `CN(C)c1cc2oc3cc(N(C)C)c(F)cc3c(=O)c2cc1F`, the emission maximum (in CCO) is reported as 446 nm.

For `c1ccc(-c2nc(-c3ccccc3)nc(-c3ccc(-n4c5ccccc5c5cc6c(cc54)C4(c5ccccc5-c5ccccc54)c4ccccc4-6)cc3)n2)cc1`, the emission maximum (in C1CCOC1) was 492.65 nm, the emission maximum (in CCCCCC) was 396.27 nm and the emission maximum (in Cc1ccccc1) was 432 nm. The emission maximum (in ClCCl) was 501.47 nm and the emission maximum (in O=P(c1ccccc1)(c1ccccc1)c1ccccc1Oc1ccccc1P(=O)(c1ccccc1)c1ccccc1) was 470 nm.

In the case of `CN(C)c1ccc(/C=C/c2ncccn2)cc1`, the emission maximum (in ClCCl) is reported as 472 nm.

For `Cc1cc2ccccc2cc1C`, the emission maximum (in C1CCCCC1) was 339.21 nm.

With `CCCCOc1ccc(/C=C/C2=[N+]3C(=C(c4ccc(I)cc4)c4c(/C=C/c5ccc(N(C)C)cc5)cc(/C=C/c5ccc(OC)cc5)n4[B-]3(F)F)C(/C=C/c3ccc(OCCOCCOC)cc3)=C2)cc1` the emission maximum (in C1COCCO1) was 714 nm.

For `c1cc2c3c(c1)OCCCCCCCOc1cccc(c1-c1c4ccccc4c-3c3ccccc13)OCCCCCCCO2`, the emission maximum (in C1CCCCC1) was 427 nm.

Compound `Cc1ccc(-n2c3ccc(-c4ccc(-c5nc6ccccc6n5-c5ccccc5)cc4)cc3c3cc(-c4ccc(-c5nc6ccccc6n5-c5ccccc5)cc4)ccc32)cc1` has an emission maximum (in ClC(Cl)Cl) of 410 nm.

`CCC1=[N+]2c3c(c4ccc(Oc5c(C)cc(C)cc5C)c5cc6c(Oc7c(C)cc(C)cc7C)ccc7c8cc(CC)n(c8c3c(c54)c67)[B-]2(F)F)=C1` gave an emission maximum (in Cc1ccccc1) of 924 nm.

In the case of `C[Si]1(C)c2cc(-c3ccc(-c4cccs4)s3)ccc2C=Cc2ccc(-c3ccc(-c4cccs4)s3)cc21`, the emission maximum (in ClCCl) is reported as 463 nm.

`CCC(C)(C)c1ccc(-c2ccc3c(c2)C(CCOC)(CCOC)c2cc4c(cc2-3)C(CCOC)(CCOC)c2cc(-c3ccc(C(C)(C)CC)cc3)ccc2-4)cc1` gave an emission maximum (in C1CCCCC1) of 390 nm.

Work on `Cc1ccc2nnn(-c3c(C#N)c4c(N)ncnc4n3[C@H]3C[C@H](O)[C@@H](CO)O3)c2c1` yielded an emission maximum (in CO) of 419 nm.

In the case of `c1ccc2c(c1)Sc1ccccc1N2c1ccc2c(c1)C1(c3ccccc3-c3ccccc31)c1cc(N3c4ccccc4Sc4ccccc43)ccc1-2`, the emission maximum (in Cc1ccccc1) is reported as 498 nm.

Work on `CCCc1c(C(=O)c2ccc3c4c(cccc24)-c2cccc4c2C3CC=C4)c2ccc3cccc4c5cccc6ccc1c(c65)c2c34` (stereo unspecified) yielded an emission maximum (in ClCCl) of 526 nm.

`N#Cc1c(C#N)c2cc(F)ccc2c2ccc(F)cc12` showed an emission maximum (in ClC(Cl)Cl) of 374 nm.

With `CCCCCCC(CCCCCC)N1C(=O)c2cccc3c(-c4ccc(-c5ccc(OC)cc5)cc4)ccc(c23)C1=O` the emission maximum (in CCCCCC) was 426.8 nm, the emission maximum (in CCCCCCCCCCCCCC) was 436.7 nm and the emission maximum (in CCCCCCCCCCCO) was 518.2 nm. It also gave an emission maximum (in CCCCO) of 556.6 nm, an emission maximum (in CN(C)C=O) of 583.4 nm and an emission maximum (in Cc1ccccc1) of 454.6 nm. It also gave an emission maximum (in ClC(Cl)Cl) of 492.2 nm.

Work on `CCCCC(CC)COc1cc(OCC(CC)CCCC)c2c#cc3ccc4sc5ccc(c#cc6cc(c#cc7ccc8sc9ccc(c#cc1c2)cc9c8c7)c(C(CCCC)OCCC)cc6C(CCCC)OCCC)cc5c4c3` (stereo unspecified) yielded an emission maximum (in ClCCl) of 377 nm.

`CCCCCCN1C(=O)c2cccc3c(-c4ccc(-c5cc(-c6ccc(Cl)cc6)n(-c6ccccc6)n5)s4)ccc(c23)C1=O` gave an emission maximum (in ClCCl) of 517 nm.

Compound `C(=C\c1ccc(-c2cccc3ccccc23)s1)/c1ccc(-c2cccc3ccccc23)s1` has an emission maximum (in ClCCl) of 475 nm.

Compound `COc1ccc2c3c(cccc13)C(=O)N(C)C2=O` has an emission maximum (in C1CCCCC1) of 404 nm, an emission maximum (in C1CCOC1) of 430 nm and an emission maximum (in CC#N) of 434 nm. The emission maximum (in CC(C)CC(C)(C)C) was 402 nm, the emission maximum (in CCCCCCCCCCCC) was 402 nm and the emission maximum (in CCO) was 444 nm. The emission maximum (in CN(C)C=O) was 444 nm, the emission maximum (in CO) was 450 nm and the emission maximum (in CS(C)=O) was 452 nm. It also gave an emission maximum (in ClC(Cl)(Cl)Cl) of 412 nm and an emission maximum (in O) of 462 nm.

Compound `c1ccc2c(c1)-c1ccccc1C21c2ccccc2-c2sc3c(c21)C1(c2ccccc2-c2ccccc21)c1ccccc1-3` has an emission maximum (in C1CCOC1) of 403 nm.

With `CSc1ccc2cc(C#N)c3ccc4ccccc4c3c2c1` the emission maximum (in ClC(Cl)Cl) was 403 nm.

Work on `CCCCCCCCCC1(CCCCCCCCC)c2cc(C#Cc3ccc(/C=C/c4ccc(N(CCCCCCCC)CCCCCCCC)cc4)cc3)ccc2-c2ccc(C#Cc3ccc(/C=C/c4ccc(N(CCCCCCCC)CCCCCCCC)cc4)cc3)cc21` yielded an emission maximum (in Cc1ccccc1) of 464 nm.

Compound `CCCCC(CC)CN1C(=O)C2=C(c3ccc(-c4ccc(C5=C6C(C)=CC(C)=[N+]6[B-](F)(F)n6c(C)cc(C)c65)cc4)s3)N(CC(CC)CCCC)C(=O)C2=C1c1cccs1` (stereo unspecified) has an emission maximum (in Cc1ccccc1) of 623 nm.

`O=P1(c2ccccc2)C(c2ccc(N(c3ccccc3)c3ccccc3)cc2)=Cc2cc3ccccc3cc21` (stereo unspecified) gave an emission maximum (in C1CCOC1) of 511 nm, an emission maximum (in CC#N) of 561 nm and an emission maximum (in CN(C)C=O) of 551 nm. For the same compound, the emission maximum (in Cc1ccccc1) was 478 nm, the emission maximum (in ClC(Cl)Cl) was 516 nm and the emission maximum (in ClCCl) was 533 nm.

Compound `COc1ccc(C2=C(c3ccc(C)cc3)C(c3ccccc3)=[N+]3C2=Nc2c(-c4ccc(OC)cc4)c(-c4ccc(C)cc4)c(-c4ccccc4)n2[B-]3(F)F)cc1` has an emission maximum (in Cc1ccccc1) of 709 nm.

For `O=C1O[B-]2(OC1=O)OC(c1ccc3ccccc3c1)=CC(c1ccc3ccccc3c1)=[O+]2`, the emission maximum (in CC#N) was 550 nm and the emission maximum (in ClC(Cl)(Cl)Cl) was 451 nm.

`CCCCCCCCCCOc1cc(OCCCCCCCCCC)cc(C2=C3C(/C=C/c4ccc(OC)cc4)=C(C#Cc4ccc(C(C)(C)C)cc4)C(/C=C/c4ccc(OC)cc4)=[N+]3[B-](F)(F)n3c(/C=C/c4ccc(OC)cc4)c(C#Cc4ccc(C(C)(C)C)cc4)c(/C=C/c4ccc(OC)cc4)c32)c1` showed an emission maximum (in ClC(Cl)Cl) of 756 nm.

With `Cn1c(-c2ccc(-c3nc(-c4ccccc4)c(-c4ccccc4)n3C)cc2)nc(-c2ccccc2)c1-c1ccccc1` the emission maximum (in CC#N) was 440 nm and 417 nm.

With `C=Cc1cc2cc3c(cc2oc1=O)OCO3` the emission maximum (in CC#N) was 448 nm.

Work on `CC(C)(C)NC(=O)c1ccc(-c2ccccc2)c2ccc3c4ccccc4c4ccccc4c3c12` yielded an emission maximum (in ClCCl) of 413 nm.

Work on `CCCCCCc1cc2/c(=C(\C#N)C(=O)OC)s/c(=c3/s/c(=C(/C#N)C(=O)OC)c4cc(CCCCCC)sc34)c2s1` yielded an emission maximum (in Cc1ccccc1) of 605 nm.

In the case of `CC(C)(C)C1CCC(=CS/C=C/c2ccc(-c3ccc(/C=C/SC=C4CCC(C(C)(C)C)CC4)cc3)cc2)CC1` (stereo unspecified), the emission maximum (in ClCCl) is reported as 432 nm.

For `CCCCN(CCCC)c1ccc(C#Cc2cc(C#Cc3ccc(C(F)(F)F)cc3)c(C#Cc3ccc(N(CCCC)CCCC)cc3)cc2C#Cc2ccc(C(F)(F)F)cc2)cc1`, the emission maximum (in ClCCl) was 546 nm and the emission maximum (in c1ccccc1) was 506 nm.

`CC[n+]1c(-c2ccccc2)c2cc(NC(N)=[NH2+])ccc2c2ccc(NC(N)=[NH2+])cc21` showed an emission maximum (in O) of 500 nm.

Compound `Cc1cc(C)c(C2=C3C=CC=[N+]3[B-]3(c4ccccc4)Oc4cc(O)cc5c6ccc(C)cc6c6cc2n3c6c45)c(C)c1` (stereo unspecified) has an emission maximum (in ClC(Cl)Cl) of 669 nm.

`CC1=[N+]2C(=C(c3ccc4c(c3)Cc3ccccc3-4)c3ccc(C)n3[B-]2(F)F)C=C1c1cc2n(c1)[B-](F)(F)[N+]1=CC=CC1=C2c1c(C)cc(C)cc1C` showed an emission maximum (in C1CCCCC1) of 645 nm and an emission maximum (in CCOC(C)=O) of 675 nm.

Work on `CC1=C(c2ccc(N(C)C)cc2)C(C)=[N+]2C1=C(c1c(-c3ccccn3)nc3ccccn13)c1c(C)c(-c3ccc(N(C)C)cc3)c(C)n1[B-]2(F)F` yielded an emission maximum (in ClCCl) of 722 nm.

With `CCN(CC)c1ccc2cc(C#N)/c(=N\C(=O)c3ccc(F)cc3)oc2c1` the emission maximum (in CCO) was 533 nm and the emission maximum (in ClCCl) was 507 nm.

With `Cc1ccc(-c2cc3ccccc3oc2=O)cc1` the emission maximum (in C1CCOC1) was 410 nm, the emission maximum (in CCCCCC) was 425 nm and the emission maximum (in CCO) was 408 nm. It also gave an emission maximum (in CS(C)=O) of 409 nm.

For `COc1cc(C=O)cc(-c2[nH]c(=O)n3c2-c2ccccc2C3=O)c1O`, the emission maximum (in CC#N) was 473 nm, the emission maximum (in CO) was 490 nm and the emission maximum (in ClCCl) was 467 nm.

`CCN(CC)c1ccc2cc(/C=C/C3=C4CC/C(=C\c5cc6ccc(N(CC)CC)cc6oc5=O)C4=[O+][B-](F)(F)O3)c(=O)oc2c1` gave an emission maximum (in C1COCCO1) of 675 nm, an emission maximum (in CC#N) of 758 nm and an emission maximum (in CC(C)=O) of 734 nm. For the same compound, the emission maximum (in CCOC(C)=O) was 693 nm, the emission maximum (in CN(C)C=O) was 758 nm and the emission maximum (in CS(C)=O) was 780 nm. It also gave an emission maximum (in Cc1ccccc1) of 658 nm, an emission maximum (in ClC(Cl)Cl) of 706 nm and an emission maximum (in ClCCl) of 730 nm.

`Cc1ccc2c(c1)C1(c3ccccc3Oc3ccccc31)c1cc(C)ccc1N2c1ccc(-c2nc(-c3ccccc3)cc(-c3ccccc3)n2)cc1` showed an emission maximum (in Cc1ccccc1) of 451 nm and an emission maximum (in O=P(c1ccccc1)(c1ccccc1)c1ccc2oc3ccc(P(=O)(c4ccccc4)c4ccccc4)cc3c2c1) of 452 nm.

With `FC(F)(F)c1ccc(-n2c(-c3ccc(N(c4ccc(-c5ccc(N(c6ccc(-c7nc8c9ccccc9c9ccccc9c8n7-c7ccc(C(F)(F)F)cc7)cc6)c6ccc(-c7nc8c9ccccc9c9ccccc9c8n7-c7ccc(C(F)(F)F)cc7)cc6)cc5)cc4)c4ccc(-c5nc6c7ccccc7c7ccccc7c6n5-c5ccc(C(F)(F)F)cc5)cc4)cc3)nc3c4ccccc4c4ccccc4c32)cc1` the emission maximum (in ClCCl) was 442 nm.

With `COc1cccc(-n2c(-c3ccc(F)cc3)nc(C)c2C)c1` the emission maximum (in C1COCCO1) was 369 nm, the emission maximum (in CC#N) was 365.4 nm and the emission maximum (in CCCCCC) was 369 nm. The emission maximum (in CCCCO) was 370 nm, the emission maximum (in CCO) was 371 nm and the emission maximum (in CCOC(C)=O) was 367 nm. For the same compound, the emission maximum (in CO) was 368 nm, the emission maximum (in ClC(Cl)Cl) was 369 nm and the emission maximum (in ClCCl) was 368 nm. The emission maximum (in c1ccccc1) was 365 nm.
